In US20240366624A1, “METHODS AND COMPOSITIONS FOR TREATING THROMBOTIC DISEASE” (Washington University, priority 2023, published 2024):

Experiments:
WT mouse platelets = experiment: Platelet aggregation, WT mouse platelets; assay type: cell-based
Method: FIG. 9(A-C) is an exemplary embodiment of EN460 inhibiting thrombin-induced aggregation of mouse and human platelets in accordance with the present disclosure. (A) Human (FIG. 9A), WT (FIG. 9B), and Ero1α-null (FIG. 9C) platelets were pretreated with EN460, an ERO1α inhibitor, at 1, 3, or 10 μM, and treated with 0.025 U/ml thrombin to induce platelet aggregation. The data represent the mean±SD (n=3). P values determined by ANOVA and Dunnett's test (FIG. 9(A-B)) or Student's t-test (FIG. 9C).
FIG. 10(A-E) is an exemplary embodiment of 15E9 not affecting platelet activation and aggregation in accordance with the present disclosure. […] P values determined by unpaired Student's t-test (vs. mIgG1).
FIG. 18(A-R) is an exemplary embodiment of novel small-molecule inhibitors recapitulating the defect in Ero1α (endoplasmic reticulum oxidoreductase 1a)-null platelets in accordance with the present disclosure. […] After incubation with a different concentration of B12-5, the specific interaction between B12-5 and ERO1α was measured by subtracting the nonspecific binding. The KD value was calculated from the Kon and Koff values. […] P values determined by ANOVA and Dunnett test (FIG. 18(B-E), FIG. 18(1-L), and FIG. 18(O-R) [for B12-5]) or Student t test (FIG. 18M, FIG. 18N, and FIG. 18(O-R) [for BAPTA (1,2-bis(o-aminophenoxy)ethane-N,N,N′,N′-tetraacetic acid)]).

mouse platelets = experiment: Ca2+ mobilization (FLIPR), mouse platelets; assay type: cell-based
Method: FIG. 15 is an exemplary embodiment of EN460 affecting the basal level of cytosolic Ca2+ and inhibiting Ca2+ mobilization in accordance with the present disclosure. WT mouse platelets were pretreated with vehicle (0.1% DMSO) or 5-10 μM EN460, followed by measuring Ca2+ release and influx after stimulation with 2 μM A23187 and the addition of 1 mM CaCl2). The data represent the mean±SD (n=3). P values determined by ANOVA and Dunnett's test.
Ca^2+ mobilization was measured as described previously. WT control and Ero1α-null platelets (1×10^8/mL) were suspended in HEPES-Tyrode buffer, pH 7.4. Cells were incubated with a Ca^2+ dye (FLIPR Ca^2+5 assay kit; Molecular Devices) for 30 minutes at 37° C. in the dark, followed by stimulation with thrombin (0.1 U/mL), A23187 (2 μM) or thapsigargin (10-20 μM). After measuring Ca^2+ release, 1 mM CaCl2) was immediately added to assess Ca^2+ influx. In other experiments, Ca^2+ dye-labeled human and WT mouse platelets were incubated with a vehicle or an inhibitor for 10 minutes at 37° C. Cytosolic Ca^2+ levels were measured using a FlexStation3 microplate reader with an excitation wavelength of 485 nm and an emission wavelength of 525 nm. Ca^2+ mobilization was quantified by the area under the curve and expressed as a relative fluorescence unit.

SMILES	thrombin- or CRP-induced WT platelet aggregation (WT mouse platelets; 10 μM)	Ca2+ release and influx (mouse platelets; mouse platelets, thrombin or A23187)	thrombin-induced aggregation (WT mouse platelets; 3 to 10 μM, mouse platelets)	Ca2+ release and influx (mouse platelets; A23187 stimulation, 5-10 μM)	basal level of cytosolic Ca2+ (mouse platelets; concentration-dependent, 5-10 μM, 3 to 10 μM)
O=C(CSc1nc(O)cc(O)n1)N1c2ccccc2Sc2ccccc21 [B12-5]	significantly mitigated	dose dependently inhibited			
O=C(O)c1cc(N2N=C(C(F)(F)F)/C(=C/c3ccc(-c4ccccc4)o3)C2=O)ccc1Cl [EN460]			abrogated	diminished	increased
